From patent US8618127B2, “Methods and compositions for alleviating stuttering” (Endo Pharmaceuticals Solutions Inc., priority 2000, dated 2013)

Key:
[1] = eight-week course, randomized patients; cited from earlier work
[2] = Stuttering of a patient treated with pagoclone in a double-blind placebo-controlled panic disorder clinical trial; format: in vivo, human
Experimental: A patient is enrolled in a clinical trial examining the efficacy and safety of pagoclone, a drug which works at the GABAA receptor, in the treatment of panic disorder, an anxiety disorder. […] The double-blind placebo-controlled trial conceals the drug type until the conclusion of the trial. During the trial the patient is taking 0.60 mg pagoclone/day (0.20 mg t.i.d.). The patient had never before experienced this sort of an effect on their stuttering and they had taken, in the past, other anti-anxiety medications for their psychiatric condition, none of which had such an effect on their stuttering. During the trial, both they and the clinician treating them in the clinical trial notice the reduction in their stuttering, which is documented at their week 2 visit. […] During the trial they also are taking ibuprofen and a prophylactic for urinary tract infections.

[3] = Elliot et al. 1985; cited from earlier work

SMILES: O=C(CCCN1CCC(O)(c2ccc(Cl)cc2)CC1)c1ccc(F)cc1 [haloperidol]
- effect on stuttering, objective measures of speech [1]: significant improvement

SMILES: CC(C)CCC(=O)CC1c2ccccc2C(=O)N1c1ccc2ccc(Cl)nc2n1 (single isomer, unassigned; (+)) [pagoclone, (+)2-(7-chloro-1,8-naphthyridine-2-yl)-3-(5-methyl-2-oxo-hexyl)-1-isoindolinone]
- effect on stuttering while taking the drug ([2]; patient, fairly severe stuttering, 0.60 mg pagoclone/day (0.20 mg t.i.d.), documented at week 2 visit): significant reduction in their fairly severe stuttering problem
- effect on anxiety and psychiatric condition ([2]; same patient with panic disorder, 0.60 mg pagoclone/day): reduction in their anxiety and improvement in their psychiatric condition
- stuttering after stopping the drug ([2]; same patient, after stopping pagoclone): returns to the pre-drug level within a day

SMILES: Cc1nnc2n1-c1ccc(Cl)cc1C(c1ccccc1)=NC2 [Alprazolam]
- drug-induced stuttering [3]: can induce stuttering
